In US12116358B2, “Substituted indoles and methods of use thereof” (EPIZYME, INC., priority 2018, dated 2024):
Where two headings read alike, the source gives them in different places.

Columns and labels:
H3K36me3 in A549 cells = assay: In-Cell Western (ICW) assay of SETD2 inhibitors (A549 assay); assay type: cell-based, human
Outline: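 H3K36me3 In-Cell Western: cells exposed to compound for 3 days at 4,000 cells/well, 37° C. DRAQ5 (1:1000) marked cell number, with 700/800-channel Licor read-out.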

SETD2(1434-1711) = biological target: T1, SETD2(1434-1711) (Homo sapiens, UniProt Q9BYW2); assay: SETD2 (1434-1711) assay; assay type: biochemical; conditions: read-out: SETD2 (1434-1711)
T1 construct: SETD2 (1434-1711) Assay; catalogue N/A
T1 sequence (Q9BYW2 1434-1711): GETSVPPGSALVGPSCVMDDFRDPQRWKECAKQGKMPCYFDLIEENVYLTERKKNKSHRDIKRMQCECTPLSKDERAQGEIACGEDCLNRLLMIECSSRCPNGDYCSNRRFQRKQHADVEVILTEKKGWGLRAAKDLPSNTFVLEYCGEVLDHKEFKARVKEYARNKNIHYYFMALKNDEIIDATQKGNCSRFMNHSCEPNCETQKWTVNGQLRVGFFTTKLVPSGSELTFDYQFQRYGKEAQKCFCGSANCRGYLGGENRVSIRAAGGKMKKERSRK

[1] = Homo sapiens, A549 cells, read-out: SETD2 A549
[2] = A549 cells, read-out: SETD2 A549

Structure (SMILES) | IC50 (H3K36me3 in A549 cells; [1]) [nM] | IC50 (SETD2(1434-1711)) [nM] | IC50 (H3K36me3 in A549 cells; [2]) [nM] | IC50 (H3K36me3 in A549 cells; Homo sapiens, A549, read-out: SETD2 A549) [nM]
CC(=O)N(C)C1CCCN(C2COCC(NC(=O)c3cc4c(F)ccc(C)c4[nH]3)C2)C1 (stereo not shown) [compound 305] | 1200 | 500 | – | –
Cc1cccc(O)c1C(NC(=O)c1cc2cccc(C)c2[nH]1)C1CC1 (stereo not shown) [compound 492] | 12500 | > 50000 | – | –
Cc1ccc(F)c2cc(C(=O)N[C@@H]3CCC[C@@H](N4CCn5c(cccc5=O)C4)C3)[nH]c12 [compound 1143] | – | 1900 | > 2000 | –
CC(=O)N1CCN(C2CC(NC(=O)c3cc4c(F)ccc(C)c4[nH]3)CN(C)C2)CC1 (stereo not shown) [compound 1109] | – | > 10000 | > 2000 | –
Cc1cccnc1C(CN1CCOCC1)N(C)C(=O)c1cc2cccc(C)c2[nH]1 (stereo not shown) [compound 601] | – | > 50000 | > 25000 | –
Cc1ccc(F)c2cc(C(=O)N[C@@H]3CCC[C@@H](c4cccnc4)C3)[nH]c12 [compound 902] | > 2000 | 4200 | – | –
Cc1cccc2cc(C(=O)NC(C)c3ccccc3Cl)[nH]c12 (stereo not shown) [compound 1156] | – | 2100 | 19700 | –
CC(=O)N1CCC12CN(C1CCCC(NC(=O)c3cc4c(F)ccc(C)c4[nH]3)C1)C2 (stereo not shown) [compound 951] | – | 7000 | > 2000 | –
CC(=O)N1CCN(C2COCC(NC(=O)c3cc4c(F)ccc(C)c4[nH]3)C2)CC1 (stereo not shown) [compound 987] | – | > 10000 | > 2000 | –
Cc1ccc(F)c2cc(C(=O)NC3CCCC(N4CCn5c(c[nH]c5=O)C4)C3)[nH]c12 (stereo not shown) [compound 1166] | – | 1000 | > 2000 | –
CNC(=O)C(NC(=O)c1cc2c(F)ccc(C)c2[nH]1)c1ccccn1 (stereo not shown) [compound 585] | – | 34000 | > 25000 | –
Cc1cccc2cc(C(=O)Nc3ccc4ccc(CN5CCOCC5)cc4c3)[nH]c12 [compound 487] | – | 1600 | 11000 | –
Cc1ccc(F)c2cc(C(=O)Nc3cnc(C4CCN(C)CC4)[nH]3)[nH]c12 [compound 562] | > 25000 | > 10000 | – | –
Cc1cc(N2CCN(CCCc3cccnc3)CC2)cnc1C(NC(=O)c1cc2cccc(C)c2[nH]1)C1CC1 (stereo not shown) [compound 440] | 5000 | 800 | – | –
Cc1ccc(F)c2cc(C(=O)Nc3cc(N4CCN(C)CC4)n4ccnc4c3)[nH]c12 [compound 355] | > 2000 | 500 | – | –
Cc1cc(C(=O)NC2CCN(C)CC2)cnc1C(NC(=O)c1cc2cccc(C)c2[nH]1)C1CC1 (stereo not shown) [compound 470] | 8000 | 600 | – | –
Cc1cccc2cc(C(=O)Nc3cccc(CN4CCN(C)CC4)c3)[nH]c12 [compound 488] | – | 2500 | 11800 | –
Cc1ccc(F)c2cc(C(=O)NC3CCCC(N4CCN5C(=O)COCC5C4)C3)[nH]c12 (stereo not shown) [compound 1141] | – | 400 | 1300 | –
Cc1ccc(F)c2cc(C(=O)Nc3cn(C4CCN(C)CC4)cn3)[nH]c12 [compound 561] | > 25000 | > 10000 | – | –
Cc1ccc(F)c2cc(C(=O)Nc3ccnc(N4CCN(C)CC4)c3)[nH]c12 [Cpd. No. 340, 4-fluoro-7-methyl-N-(2-(4-methylpiperazin-1-yl)pyridin-4-yl)-1H-indole-2-carboxamide] | – | 200 | – | 1700
Cc1cccc2cc(C(=O)NCCc3ccccc3N3CCC(CCN(C)C)CC3)[nH]c12 [compound 549] | – | 5800 | > 25000 | –
Cc1cc(-c2ncccn2)cnc1C(NC(=O)c1cc2cccc(C)c2[nH]1)C1CC1 (stereo not shown) [compound 404] | 2800 | 300 | – | –
Cc1cccc2cc(C(=O)NC3CC(=O)Nc4ccccc4C3)[nH]c12 (stereo not shown) [compound 520] | – | 12300 | 19800 | –
Cc1ccc(F)c2cc(C(=O)Nc3cccc(S(N)(=O)=O)c3)[nH]c12 [compound 454] | 5900 | 2800 | – | –
Cc1ccc(F)c2cc(C(=O)N[C@@H]3CCC[C@@H](N4CCN(C(=O)CN(C)C)CC4)C3)[nH]c12 [compound 855] | – | 4700 | > 2000 | –
Cc1ccc(F)c2cc(C(=O)N[C@@H]3CCC[C@@H](N4CCNC(=O)CC4)C3)[nH]c12 [compound 933] | > 2000 | 700 | – | –
Cc1cc(-c2ccc(CN3CCOCC3)nc2)cnc1C(NC(=O)c1cc2cccc(C)c2[nH]1)C1CC1 (stereo not shown) [compound 402] | – | 300 | 2500 | –
CC(=O)N1C(C)CN(C2CCCC(NC(=O)c3cc4c(F)ccc(C)c4[nH]3)C2)CC1C (stereo not shown) [compound 1123] | – | 500 | 1400 | –

Continued, in another order:

IC50 (H3K36me3 in A549 cells; [1]) [nM] | IC50 (SETD2(1434-1711)) [nM] | IC50 (H3K36me3 in A549 cells; [2]) [nM] | Structure (SMILES) | IC50 (H3K36me3 in A549 cells; Homo sapiens, A549, read-out: SETD2 A549) [nM]
600 | 20 | – | Cc1ccc(F)c2cc(C(=O)N[C@@H]3CCC[C@H](N4CCn5c(c[nH]c5=O)C4)C3)[nH]c12 [compound 1059] | –
100 | 20 | – | Cc1ccc(F)c2cc(C(=O)N[C@@H]3CCC[C@H](N4CCN(C(=O)C5COC5)CC4)C3)[nH]c12 [compound 918] | –
– | 20 | > 2000 | CC(=O)N(C)C1CN(C2CCCC(NC(=O)c3cc4c(F)ccc(C)c4[nH]3)C2)C1 (stereo not shown) [compound 960] | –
– | 20 | 600 | Cc1ccc(F)c2cc(C(=O)NC3CCCC(N4CCC5(CC4)COC(=O)N5)C3)[nH]c12 (stereo not shown) [compound 963] | –
– | 300 | 2300 | Cc1cccc2cc(C(=O)Nc3cccc(N4CCN(C(=O)CN)CC4)c3)[nH]c12 [compound 396] | –
500 | 100 | – | Cc1ccc(F)c2cc(C(=O)Nc3cccc(-c4cccn5nccc45)c3)[nH]c12 [compound 235] | –
50 | 20 | – | C/C(=N\C#N)N1CCN([C@H]2CCC[C@@H](NC(=O)c3cc4c(F)ccc(C)c4[nH]3)C2)CC1 [compound 1116] | –
– | 30 | 90 | CCC(=O)N1CCN(c2cccc(NC(=O)c3cc4c(F)ccc(C)c4[nH]3)c2)CC1 [compound 36] | –
– | 30 | 100 | Cc1ccc(F)c2cc(C(=O)Nc3cccc(N4CCC5(CC4)COC5)c3)[nH]c12 [compound 57] | –
1000 | 200 | – | Cc1ccc(F)c2cc(C(=O)Nc3cccc(N4CC5CC4CO5)c3)[nH]c12 (stereo not shown) [compound 284] | –
– | 40 | 200 | CC(=O)N(C)C1CCN(c2cccc(NC(=O)c3cc4c(F)ccc(C)c4[nH]3)c2)CC1 [compound 78] | –
300 | 20 | – | CNC1CCN(c2cccc(NC(=O)c3cc4c(F)ccc(C)c4[nH]3)c2)CC1 [compound 144] | –
10 | 10 | – | CCC(=O)N1CCN([C@H]2CCC[C@@H](NC(=O)c3cc4c(F)ccc(C)c4[nH]3)C2)CC1C(F)(F)F (stereo partly shown) [compound 1113] | –
300 | 20 | – | Cc1ccc(F)c2cc(C(=O)N[C@@H]3CCC[C@H](N4CC[C@H](N(CCO)S(C)(=O)=O)C4)C3)[nH]c12 [compound 1061] | –
300 | 50 | – | Cc1ccc(F)c2cc(C(=O)Nc3cccc(N4CCC(O)CC4)c3)[nH]c12 [compound 126] | –
– | 8 | 60 | Cc1ccc(F)c2cc(C(=O)Nc3cc(F)cc(N4CCC(N5CCCC5=O)C4)c3)[nH]c12 (stereo not shown) [compound 18] | –

IC50 (H3K36me3 in A549 cells; [1]) [nM] | IC50 (SETD2(1434-1711)) [nM] | IC50 (H3K36me3 in A549 cells; [2]) [nM] | Structure (SMILES) | IC50 (H3K36me3 in A549 cells; Homo sapiens, A549, read-out: SETD2 A549) [nM]
300 | 100 | – | Cc1ccc(F)c2cc(C(=O)Nc3cccc(-c4nccn4C)c3)[nH]c12 [compound 171] | –
– | 20 | 500 | Cc1ccc(F)c2cc(C(=O)N[C@@H]3CCC[C@H](N4CCN(C(=O)CN(C)C)CC4)C3)[nH]c12 [compound 854] | –
– | 100 | 2200 | Cc1ccc(F)c2cc(C(=O)Nc3cccc(C4(N)CC4)c3)[nH]c12 [compound 395] | –
1000 | 200 | – | Cc1ccc(F)c2cc(C(=O)Nc3cccc(N4CCOC5(CC5)C4)c3)[nH]c12 [compound 287] | –
10 | 10 | – | CC(=O)N1[C@H](C)CN([C@H]2CCC[C@@H](NC(=O)c3cc4c(F)ccc(C)c4[nH]3)C2)C[C@H]1C [compound 1062] | –
1000 | 40 | – | Cc1ccc(F)c2cc(C(=O)Nc3cccc(-c4ccccn4)c3)[nH]c12 [compound 285] | –
– | 20 | 50 | Cc1ccc(F)c2cc(C(=O)NC3CCCC(N4CCC(N(C)C(=O)C(C)(C)O)C4)C3)[nH]c12 (stereo not shown) [compound 1052] | –
40 | 10 | – | Cc1ccc(F)c2cc(C(=O)N[C@@H]3CCC[C@H](N4CCN(C(=O)CO)CC4)C3)[nH]c12 [compound 870] | –
700 | 60 | – | Cc1ccc(F)c2cc(C(=O)Nc3cccc(N4CCC(O)(C5CCN(C)CC5)CC4)c3)[nH]c12 [compound 268] | –
– | 100 | 3400 | Cc1ccc(F)c2cc(C(=O)Nc3cccc(CCN)c3)[nH]c12 [compound 418] | –
– | 80 | 600 | Cc1ccc(F)c2cc(C(=O)Nc3cccc(CCN4CCN(C)CC4)c3)[nH]c12 [compound 244] | –
1300 | 100 | – | Cc1ccc(F)c2cc(C(=O)Nc3cccc(N4CC[C@@H](N(C)C)C[C@H]4C)c3)[nH]c12 [compound 308] | –
4300 | 100 | – | Cc1cccc2cc(C(=O)Nc3cccc(N4CCN(S(=O)(=O)C5CCC(N)CC5)CC4)c3)[nH]c12 (stereo not shown) [compound 429] | –
– | 100 | 200 | Cc1ccc(F)c2cc(C(=O)Nc3cccc(N4CCC5(CC4)CN(CC(F)(F)F)C5)c3)[nH]c12 [compound 110] | –
900 | 100 | – | Cc1ccc(F)c2cc(C(=O)N[C@@H]3CCCC(N4CCNC(=O)CC4)C3)[nH]c12 (stereo partly shown) [compound 893] | –
